Experiment [1] deals with human TYK2 (JH2domain-pseudokinase) (Homo sapiens (Human), UniProt P29597). Kind of experiment: TYK2 JH2 Domain Binding Assay (KINOMEscan). The conditions noted are these: 11-point 3-fold dilution, top concentration 30,000 nM, duplicate; read-out: hTYK2_JH2_Binding (Kd; nM). In outline:
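KINOMEscan competition binding: HEK293-expressed NFkB-fused TYK2 JH2 (G556–D888), DNA-tagged, against immobilized ligand beads, 1 h shaking at room temperature, 0.9% DMSO. Bound kinase quantified by qPCR.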

In experiment [2] the test system is IL-12 induced STAT4 phosphorlyation mediated by TYK2/JAK2. Kind of experiment: IL-12 Induced pSTAT4 in Human PBMC. The format is cell-based. Particulars: 1.7 ng/mL IL-12 for 30 minutes. In outline: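 pSTAT4 and total STAT4 quantified by MSD in lysates of cryopreserved human PBMC after 30-minute stimulation with 1.7 ng/mL IL-12 (final). Compound was added 1 hr beforehand at 37° C, 0.1% DMSO final.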

Chain of human TYK2 (JH2domain-pseudokinase) (P29597 556-888): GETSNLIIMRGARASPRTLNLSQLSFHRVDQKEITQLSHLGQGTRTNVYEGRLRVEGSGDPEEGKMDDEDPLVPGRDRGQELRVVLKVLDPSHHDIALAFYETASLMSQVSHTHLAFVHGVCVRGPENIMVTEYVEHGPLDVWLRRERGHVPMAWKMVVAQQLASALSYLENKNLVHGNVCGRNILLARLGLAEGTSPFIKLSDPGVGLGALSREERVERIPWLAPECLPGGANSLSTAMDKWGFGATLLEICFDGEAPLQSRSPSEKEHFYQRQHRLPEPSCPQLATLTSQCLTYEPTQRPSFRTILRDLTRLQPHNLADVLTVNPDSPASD

Broadly, the Kd is the free concentration of one partner at which half of the binding sites on the other are occupied at equilibrium, for simple one-to-one binding. In general, IC50 refers to the concentration needed to halve the response being measured. Consider `CO[C@@H]1CC[C@H]1NC(=O)c1cnn2c(N)cc(Nc3cccn(-c4ccccn4)c3=O)nc12` [Compound I-247], for which the Kd in experiment [1] was > 10 nM. Further, the concentration for half-maximal inhibition (IC50) in experiment [2] was in the range of 0.1 to 0.5 µM.
Consider `CNc1cc(Nc2cccn([C@H]3[C@@H]4COC[C@@H]43)c2=O)nc2c(C(=O)N[C@H]3CCC3(F)F)cnn12` [Compound I-307], for which the dissociation constant Kd in experiment [1] was < 0.2 nM. Besides, in experiment [2], the concentration for half-maximal inhibition (IC50) is < 0.1 µM.
`CNc1cc(Nc2cccn(C(C)C)c2=O)nc2c(C(=O)N[C@@H]3CC[C@@]3(C)O)cnn12` [Compound I-341]: the dissociation constant Kd in experiment [1] is < 0.2 nM. The IC50 in experiment [2] was < 0.1 µM.
For the molecule `CNc1ccc(-c2cc(NC)n3ncc(C(=O)N[C@@H]4C[C@@H]4F)c3n2)n2ccnc12` [Compound I-479], the Kd in experiment [1] was < 0.2 nM. Moreover, the IC50 in experiment [2] was < 0.1 µM.
Regarding `CNc1ccc(-c2cc(NC)n3ncc(C(=O)NC4CC[C@@H]4OC)c3n2)n2ccnc12` (some centres unmarked) [Compound I-488], in experiment [1], the equilibrium dissociation constant (Kd) was < 0.2 nM. In experiment [2], the concentration for half-maximal inhibition (IC50) is < 0.1 µM.
For `CNc1ccc(-c2cc(NC)n3ncc(C(=O)N[C@@H]4CC[C@H]4OC)c3n2)n2ccnc12` [Compound I-490] the same measures were < 0.2 nM and < 0.1 µM.
For `CNc1cc(-c2cn([C@H]3C[C@@H](O)C3)c3ncccc23)nc2c(C(=O)NC3CC3)cnn12` [Compound I-495] the same measures were < 0.2 nM and < 0.1 µM.
For the molecule `CNc1cc(-c2cn([C@H]3C[C@@H](O)C3)c3ncccc23)nc2c(C(=O)N[C@@H]3C[C@@H]3F)cnn12` [Compound I-500], the Kd in experiment [1] was < 0.2 nM. The IC50 in experiment [2] was in the range of 0.1 to 0.5 µM.
Take `CNc1cc(-c2cn([C@@H]3COC[C@H]3O)c3ncccc23)nc2c(C(=O)N[C@@H]3C[C@@H]3F)cnn12` [Compound I-502]: the dissociation constant Kd in experiment [1] was < 0.2 nM. Besides, the 50% inhibitory concentration (IC50) in experiment [2] was in the range of 0.1 to 0.5 µM.
Turning to `CNc1cc(-c2cn(C3COC3)c3ncccc23)nc2c(C(=O)NC3CC[C@@H]3F)cnn12` (some centres unmarked) [Compound I-507], in experiment [1], the Kd is < 0.2 nM. Also, the half-inhibitory concentration (IC50) in experiment [2] was < 0.1 µM.
As to `CNc1cc(-c2cn(C3COC3)c3ncccc23)nc2c(C(=O)N[C@H]3CC[C@@H]3F)cnn12` [Compound I-508], in experiment [1], the equilibrium dissociation constant (Kd) is < 0.2 nM. In addition, the half-inhibitory concentration (IC50) in experiment [2] was < 0.1 µM.
On the same counts, the results for `CNc1cc(-c2cn(C3CN(C)C3)c3ncccc23)nc2c(C(=O)NC3CC[C@@H]3OC)cnn12` (some centres unmarked) [Compound I-608] are < 0.2 nM and < 0.1 µM.
As to `O=C(N[C@@H]1C[C@@H]1F)c1cnn2c3c(c(Nc4cccc5ocnc45)nc12)OCCN3` [Compound I-752], in experiment [1], the Kd is < 0.2 nM. Also, in experiment [2], the IC50 is < 0.1 µM.
In the case of `CC(C)n1cc(-c2nc3c(C(=O)NC4CC[C@H]4O)cnn3c3c2OCCN3)c2cccnc21` (some centres unmarked) [Compound I-753], the equilibrium dissociation constant (Kd) in experiment [1] was < 0.2 nM. Also, the IC50 in experiment [2] was < 0.1 µM.
With `CC(C)n1cc(-c2nc3c(C(=O)N[C@H]4CC[C@H]4O)cnn3c3c2OCCN3)c2cccnc21` [Compound I-754], the Kd in experiment [1] was < 0.2 nM. Also, the IC50 in experiment [2] was < 0.1 µM.
As for `O=C(NC1CC[C@@H]1F)c1cnn2c3c(c(-c4cn([C@H]5C[C@H](O)C5)c5ncccc45)nc12)OCCN3` (some centres unmarked) [Compound I-756], the Kd in experiment [1] is < 0.2 nM. Besides, the 50% inhibitory concentration (IC50) in experiment [2] is < 0.1 µM.
With `O=C(N[C@H]1CC[C@@H]1F)c1cnn2c3c(c(-c4cn([C@H]5C[C@H](O)C5)c5ncccc45)nc12)OCCN3` [Compound I-757], the equilibrium dissociation constant (Kd) in experiment [1] was < 0.2 nM. In addition, in experiment [2], the 50% inhibitory concentration (IC50) is < 0.1 µM.
On to `CO[C@@H]1CCC1NC(=O)c1cnn2c3c(c(Nc4cccn([C@H]5[C@@H]6COC[C@@H]65)c4=O)nc12)OCCN3` (some centres unmarked) [Compound I-762], for which the Kd in experiment [1] was < 0.2 nM. Further, the half-maximal inhibitory concentration (IC50) in experiment [2] is < 0.1 µM.
`CC(C)n1cccc(Nc2nc3c(C(=O)NC4CCC4(F)F)cnn3c3c2OCCN3)c1=O` (centres unmarked) [Compound I-765]: the Kd in experiment [1] was < 0.2 nM. For the same molecule, in experiment [2], the half-inhibitory concentration (IC50) is < 0.1 µM.
For the molecule `CC(C)n1cccc(Nc2nc3c(C(=O)N[C@H]4CCC4(F)F)cnn3c3c2OCCN3)c1=O` [Compound I-766], the Kd in experiment [1] was < 0.2 nM. Also, the 50% inhibitory concentration (IC50) in experiment [2] is < 0.1 µM.
Take `O=C(NC1CCC1(F)F)c1cnn2c3c(c(Nc4cccn([C@H]5[C@@H]6COC[C@@H]65)c4=O)nc12)OCCN3` (some centres unmarked) [Compound I-768]: the Kd in experiment [1] is < 0.2 nM. Also, the IC50 in experiment [2] is < 0.1 µM.
As for `O=C(N[C@@H]1CCC1(F)F)c1cnn2c3c(c(Nc4cccn([C@H]5[C@@H]6COC[C@@H]65)c4=O)nc12)OCCN3` [Compound I-769], the Kd in experiment [1] is < 0.2 nM. For the same molecule, in experiment [2], the IC50 was < 0.1 µM.
For the molecule `O=C(NC1CCC1(F)F)c1cnn2c3c(c(-c4cn(C5COC5)c5ncccc45)nc12)OCCN3` (centres unmarked) [Compound I-771, N-(2,2-Difluorocyclobutyl)-5-(1-(oxetan-3-yl)-1H-pyrrolo[2,3-b]pyridin-3-yl)-2,3-dihydro-1H-pyrazolo[5′,1′:2,3]pyrimido[5,4-b][1,4]oxazine-7-carboxamide], the Kd in experiment [1] is < 0.2 nM. Also, the half-maximal inhibitory concentration (IC50) in experiment [2] (0.5 h) is < 0.1 µM.
Take `O=C(N[C@@H]1CCC1(F)F)c1cnn2c3c(c(-c4cn(C5COC5)c5ncccc45)nc12)OCCN3` [Compound I-772]: the Kd in experiment [1] is < 0.2 nM. The IC50 in experiment [2] is < 0.1 µM.
On the same counts, the results for `O=C(NC1CC[C@@H]1F)c1cnn2c3c(c(-c4cn(C5COC5)c5ncccc45)nc12)OCCN3` (some centres unmarked) [Compound I-774] are < 0.2 nM and < 0.1 µM.
Take `CNc1cc(-c2cnc3n([C@H]4COC[C@@H]4O)cccc2-3)nc2c(C(=O)NC3CC3)cnn12` [Compound I-816]: in experiment [1], the Kd is < 0.2 nM. The IC50 in experiment [2] is < 0.1 µM.
Regarding `CNc1cc(-c2cnc3n([C@@H]4COC[C@H]4O)cccc2-3)nc2c(C(=O)NC3CC3)cnn12` [Compound I-817], in experiment [1], the Kd is < 0.2 nM. Further, the IC50 in experiment [2] is < 0.1 µM.
For the molecule `CNc1cc(-c2cnc3n([C@@H]4CCOC[C@H]4O)cccc2-3)nc2c(C(=O)NC3CC3)cnn12` [Compound I-818, N-Cyclopropyl-5-(7-((3S,4R)-3-hydroxytetrahydro-2H-pyran-4-yl)-7H-pyrrolo[2,3-b]pyridin-3-yl)-7-(methylamino)pyrazolo[1,5-a]pyrimidine-3-carboxamide], the dissociation constant (Kd) in experiment [1] was < 0.2 nM. In addition, in experiment [2] (0.5 h), the IC50 was < 0.1 µM.
For the molecule `CNc1cc(-c2cnc3n([C@H]4CCOC[C@@H]4O)cccc2-3)nc2c(C(=O)NC3CC3)cnn12` [Compound I-819], the Kd in experiment [1] was < 0.2 nM. Besides, the half-inhibitory concentration (IC50) in experiment [2] was < 0.1 µM.
On to `CNc1cc(-c2cnc3n([C@H]4COC[C@@H]4O)cccc2-3)nc2c(C(=O)N[C@@H]3C[C@@H]3F)cnn12` [Compound I-820], for which the Kd in experiment [1] is < 0.2 nM. Further, the 50% inhibitory concentration (IC50) in experiment [2] is < 0.1 µM.
With `CNc1cc(-c2cnc3n([C@@H]4COC[C@H]4O)cccc2-3)nc2c(C(=O)N[C@@H]3C[C@@H]3F)cnn12` [Compound I-821], the dissociation constant (Kd) in experiment [1] was < 0.2 nM. The same molecule returned a half-inhibitory concentration (IC50) in experiment [2] of 0.1 to 0.5 µM.
`CNc1cc(-c2cnc3n([C@@H]4CCOC[C@H]4O)cccc2-3)nc2c(C(=O)N[C@@H]3C[C@@H]3F)cnn12` [Compound I-824]: in experiment [1], the Kd was < 0.2 nM. Moreover, the IC50 in experiment [2] was < 0.1 µM.
Turning to `CNc1cc(-c2cnc3n([C@H]4CCOC[C@@H]4O)cccc2-3)nc2c(C(=O)N[C@@H]3C[C@@H]3F)cnn12` [Compound I-825], the equilibrium dissociation constant (Kd) in experiment [1] was < 0.2 nM. Also, the 50% inhibitory concentration (IC50) in experiment [2] is < 0.1 µM.
As to `CNc1cc(-c2cn([C@H]3C[C@@H](COC)C3)c3ncccc23)nc2c(C(=O)N[C@H]3CC[C@@H]3OC)cnn12` [Compound I-933], in experiment [1], the Kd is < 0.2 nM. In experiment [2], the IC50 is < 0.1 µM.

Values taken from US11414431B2, “Substituted pyrazolo[1,5-a]pyrimidines as TYK2 inhibitors” (Nimbus Lakshmi, Inc., priority 2018, dated 2022).
